PMC11980595, “Pyruvate kinase directly generates GTP in glycolysis, supporting growth and contributing to guanosine toxicity” (mBio, 2025)

Legend:
Assay type in all cases: biochemical
[1] = target: T1, L. monocytogenes PK (Listeria monocytogenes, UniProt Q8Y6W1); test: pyruvate kinase activity assay, catalytic efficiency; settings: co-substrate PEP; only kcat/Km, in figure
T1 construct: gene pykA; construct and purification not described
T1 sequence (Q8Y6W1 1-585): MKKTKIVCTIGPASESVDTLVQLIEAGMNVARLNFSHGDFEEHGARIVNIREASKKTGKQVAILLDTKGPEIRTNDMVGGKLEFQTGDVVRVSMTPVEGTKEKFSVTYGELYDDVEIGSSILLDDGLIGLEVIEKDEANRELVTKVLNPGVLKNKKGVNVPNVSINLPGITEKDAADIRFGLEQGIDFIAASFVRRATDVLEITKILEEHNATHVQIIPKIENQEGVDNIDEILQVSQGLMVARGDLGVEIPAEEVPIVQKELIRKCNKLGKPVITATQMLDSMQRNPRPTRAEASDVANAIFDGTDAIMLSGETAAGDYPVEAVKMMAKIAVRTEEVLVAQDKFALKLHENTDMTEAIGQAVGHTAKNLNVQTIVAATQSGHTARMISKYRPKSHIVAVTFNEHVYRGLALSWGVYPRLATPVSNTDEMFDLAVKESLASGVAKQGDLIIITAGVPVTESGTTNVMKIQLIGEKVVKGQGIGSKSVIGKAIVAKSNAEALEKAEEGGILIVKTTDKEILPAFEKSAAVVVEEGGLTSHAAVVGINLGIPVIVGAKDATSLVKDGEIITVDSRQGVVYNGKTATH

[2] = target: T2, E. faecalis PK (Enterococcus faecalis, UniProt Q836R2); test: as above; settings: co-substrate PEP; only kcat/Km, in figure
T2 construct: gene pyk; construct and purification not described
T2 sequence (Q836R2 1-585): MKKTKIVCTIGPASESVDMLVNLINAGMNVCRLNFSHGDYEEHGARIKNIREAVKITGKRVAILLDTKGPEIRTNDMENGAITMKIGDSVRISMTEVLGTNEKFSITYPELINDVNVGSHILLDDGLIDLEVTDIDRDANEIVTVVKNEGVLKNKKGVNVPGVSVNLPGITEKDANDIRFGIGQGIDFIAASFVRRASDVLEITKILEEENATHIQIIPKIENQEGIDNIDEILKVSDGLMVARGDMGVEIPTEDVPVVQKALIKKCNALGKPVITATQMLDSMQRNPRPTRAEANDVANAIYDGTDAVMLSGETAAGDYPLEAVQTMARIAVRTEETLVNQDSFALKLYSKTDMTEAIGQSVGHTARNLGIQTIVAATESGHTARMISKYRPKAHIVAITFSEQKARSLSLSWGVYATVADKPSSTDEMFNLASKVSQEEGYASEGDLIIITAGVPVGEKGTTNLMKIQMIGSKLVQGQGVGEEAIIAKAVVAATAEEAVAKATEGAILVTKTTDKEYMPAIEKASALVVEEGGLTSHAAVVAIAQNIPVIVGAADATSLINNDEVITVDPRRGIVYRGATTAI

[3] = target: T3, B. subtilis pyruvate kinase (PK) (Bacillus subtilis, UniProt P80885); test: activation of initial velocity, lactate dehydrogenase-coupled assay; settings: activator at 1 mM; NDP varied, co-substrate PEP
T3 construct: gene pyk
T3 sequence (P80885 1-585): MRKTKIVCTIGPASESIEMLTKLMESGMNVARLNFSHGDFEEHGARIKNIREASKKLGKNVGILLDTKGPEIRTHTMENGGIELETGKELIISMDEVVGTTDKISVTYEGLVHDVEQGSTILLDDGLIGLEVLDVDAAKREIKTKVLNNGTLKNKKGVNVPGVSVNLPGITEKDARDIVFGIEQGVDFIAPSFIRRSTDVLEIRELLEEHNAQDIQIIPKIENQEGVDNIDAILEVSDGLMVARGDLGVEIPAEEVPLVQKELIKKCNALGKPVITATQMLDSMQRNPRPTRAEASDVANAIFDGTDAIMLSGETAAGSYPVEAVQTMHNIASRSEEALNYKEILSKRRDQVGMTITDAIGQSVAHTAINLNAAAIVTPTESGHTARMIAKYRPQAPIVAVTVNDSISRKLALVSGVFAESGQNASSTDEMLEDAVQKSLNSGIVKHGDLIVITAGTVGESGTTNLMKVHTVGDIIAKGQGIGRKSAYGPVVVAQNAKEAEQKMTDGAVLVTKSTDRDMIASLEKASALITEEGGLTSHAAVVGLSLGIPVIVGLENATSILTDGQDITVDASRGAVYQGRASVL

Compound	pyruvate kinase activity assay, catalytic efficiency [1]	pyruvate kinase activity assay, catalytic efficiency [2]	activation of initial velocity, lactate dehydrogenase-coupled assay [3]
Nc1ncnc2c1ncn2[C@@H]1O[C@H](COP(=O)(O)OP(=O)(O)O)[C@@H](O)[C@H]1O [ADP]	L. monocytogenes PK can use ADP and UDP but less efficiently than GDP	E. faecalis PK is also able to use ADP with high efficiency	
Nc1ncnc2c1ncn2[C@@H]1O[C@H](COP(=O)(O)O)[C@@H](O)[C@H]1O [AMP]			when AMP, a known activator of pyruvate kinase, was added, we observed a marked increase
Nc1nc2c(ncn2[C@@H]2O[C@H](COP(=O)(O)OP(=O)(O)O)[C@@H](O)[C@H]2O)c(=O)[nH]1 [GDP]	Enterococcus faecalis and Listeria monocytogenes also showed highest catalytic efficiencies on GDP	Enterococcus faecalis and Listeria monocytogenes also showed highest catalytic efficiencies on GDP	
